Test results reported in US20250195518A1, “INDAZOLE COMPOUND AND PHARMACEUTICAL USE THEREOF” (Japan Tobacco Inc., priority 2022, published 2025).

System: mdx mice
Experiment: not given
Settings: Non-patent Document 7; cited from earlier work

Row | Structure (SMILES) | muscle strength | myonecrosis
1 | c1ccc(C(OC2CCN(CCCc3nn[nH]n3)CC2)c2ccccc2)cc1 [HQL-79] | increases muscle strength | suppresses myonecrosis

Molecular target: T1, human H-PGDS (Homo sapiens (Human), UniProt O60760)
Experiment: Human H-PGDS inhibitory activity (enzyme reaction with PGH2, PGD2 ELISA)
Format: biochemical
Settings: human recombinant H-PGDS 1.6 μg/mL, PGH2 50 μmol/L
Method: Using the human H-PGDS expression plasmid DNA (pET28b/hH-PGDS) as a template, PCR (Polymerase Chain Reaction) was performed to amplify a DNA fragment containing human H-PGDS with a NotI recognition cleavage sequence immediately before the translation initiation codon and a BamHI recognition cleavage sequence immediately below the translation end codon. The purified DNA fragment was fused to pET15b (manufactured by Merck KGaA, model number 69661) digested with NotI and BamHI, by using In-Fusion HD Cloning Kit (manufactured by Takara Bio Inc., model number 639649). […] The base sequence of human H-PGDS cloned into the vector was determined by the Dye Terminator method using BigDye Terminator v3.1 Cycle Sequencing Kit (manufactured by Applied Biosystems, model number 4337456). The determined sequence was identical to the sequence of the protein translation region of human H-PGDS (Accession number su NM_014485.2) registered in the NCBI Reference Database. […]
The protein concentration of the human H-PGDS purified fraction was measured with Pierce 660 nm Protein Assay Reagent (manufactured by Thermo Fisher Scientific Inc., model number 22660). […] Human H-PGDS was detected by Western blotting using a rabbit anti-H-PGDS polyclonal antibody (manufactured by LifeSpan BioSciences, Inc, model number LS-B6886). […]

T1 sequence (O60760 whole entry): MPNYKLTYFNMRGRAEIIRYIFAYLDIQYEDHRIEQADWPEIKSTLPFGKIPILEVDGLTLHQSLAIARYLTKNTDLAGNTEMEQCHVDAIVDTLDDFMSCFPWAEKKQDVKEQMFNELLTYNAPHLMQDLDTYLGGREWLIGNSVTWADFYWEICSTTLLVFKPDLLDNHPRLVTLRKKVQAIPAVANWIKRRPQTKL

Row | Structure (SMILES) | IC50
2 | C[C@@H](CC(=O)O)C12CCC(NC(=O)N3CCC(c4ncc(F)c5[nH]cc(F)c45)CC3)(CC1)CC2 (single isomer, unassigned) [enantiomer A] | 5 nM
3 | C[C@H](CC(=O)O)C12CCC(NC(=O)N3CCC(c4ncc(F)c5[nH]cc(F)c45)CC3)(CC1)CC2 (single isomer, unassigned) [enantiomer B] | 6 nM

Molecular target: T1, human H-PGDS
Experiment: Human H-PGDS binding inhibitory activity (AlphaLISA antagonistic assay)
Settings: His-tagged human H-PGDS 0.3 nmol/L, biotinylated H-PGDS inhibitor 45 nmol/L
Method: Experimental Example 1: Measurement of Human H-PGDS Binding Inhibitory Activity
The H-PGDS binding inhibitory activity of the test compound was measured by AlphaLISA antagonistic assay. A specific protocol is as follows.
In an AlphaPlate-384 Shallow well plate (Cat. 6008350, PerkinElmer) were added and mixed 240 nL/well of DMSO solution as a compound solution or a solvent control, 3 µL/well (final concentration: 45 nmol/L) of biotinylated H-PGDS inhibitor (see below for the production method) diluted with […] DMSO-containing Assay Buffer (50 mM HEPES-NaOH (pH 7.5), 2 mM GSH, 150 mM NaCl, 2 mM MgCl2, 0.005% Surfactant P20), and 2 μL/well (final concentration: 0.3 nmol/L) of His-tagged human H-PGDS (Cat. ATGP1557, ATgen) diluted with Assay Buffer. As a blank, 2 μL/well of Assay Buffer was added instead of His-tagged human H-PGDS. This plate was allowed to stand at room temperature for 60 min, and Nickel Chelate AlphaLISA Acceptor Beads (Cat. AL108C, Perkin Elmer) at 5 μL/well (final concentration: 20 μg/mL) were added and mixed. After allowing to stand at room temperature for 30 min under shading, AlphaScreen Streptavidin donor beads (Cat. 6760002S, Perkin Elmer) were added at 5 μL/well (final concentration: 30 μg/mL) and mixed. After allowing to stand at room temperature for 60 min under shading, AlphaLISA signals (excitation wavelength: 680 nm, measurement wavelength: 615 nm) were measured using Enspire (Perkin Elmer).
The H-PGDS binding inhibitory activity (inhibitory rate) of each test compound was calculated as follows, and the IC50 value was calculated from the inhibitory rate at two concentrations sandwiching 50%.

Row | IC50 | Structure (SMILES)
4 | 144 nM | Cc1nn(-c2ncc(C(=O)N[C@H]3CC[C@H](C(C)(C)O)CC3)cn2)c2c(C#N)cccc12 [Example 95]
5 | 27 nM | CC(C)(O)[C@H]1CC[C@H](NC(=O)c2ccc(-n3nc(Cl)c4ccccc43)nc2)CC1 [Example 17]
6 | 7 nM | Cc1nn(-c2ccc(C(=O)N[C@H]3CC[C@H](C(C)(C)O)CC3)cn2)c2cc(F)ccc12 [Example 40]
7 | 3 nM | CC(C)(O)[C@H]1CC[C@H](NC(=O)c2cnc(-n3nc(Cl)c4ccccc43)nc2)CC1 [Example 24]
8 | 200 nM | Cc1nn(-c2ncc(C(=O)N[C@H]3CC[C@H](O)CC3)cn2)c2cccc(F)c12 [Example 42]
9 | 14 nM | CC(C)(O)C(=O)N1CCC(NC(=O)c2cnc(-n3nc(C(F)F)c4ccc(F)cc43)nc2)CC1 [Example 254]
10 | 11 nM | Cc1nn(-c2ncc(C(=O)NC34CC(C(C)(C)O)(C3)C4)cn2)c2cc(F)ccc12 [Example 7, 2-(6-fluoro-3-methyl-1H-indazol-1-yl)-N-(3-(2-hydroxypropan-2-yl)bicyclo[1.1.1]pentan-1-yl)pyrimidine-5-carboxamide]
11 | 14 nM | Cc1nn(-c2ncc(C(=O)N[C@H]3CC[C@@](C)(O)CC3)cn2)c2cc(F)ccc12 [Example 204]
12 | 71 nM | Cc1nn(-c2ccc(C(=O)N[C@H]3CC[C@H](O)CC3)cn2)c2cc(F)ccc12 [Example 39]
13 | 5 nM | Cc1nn(-c2ncc(C(=O)N[C@H]3CC[C@H](OCC(C)(C)O)CC3)cn2)c2ccccc12 [Example 4, N-(trans-4-(2-hydroxy-2-methylpropoxy)cyclohexyl)-2-(3-methyl-1H-indazol-1-yl)pyrimidine-5-carboxamide]
14 | 14 nM | Cc1nc([C@H]2CC[C@H](NC(=O)c3cnc(-n4nc(C)c5ccc(F)cc54)nc3)CC2)no1 [Example 150]
15 | 3 nM | Cc1nn(-c2ncc(C(=O)N[C@H]3CC[C@H](C(C)(C)O)CC3)cn2)c2cc(F)ccc12 [Example 1, 2-(6-fluoro-3-methyl-1H-indazol-1-yl)-N-(trans-4-(2-hydroxypropan-2-yl)cyclohexyl)pyrimidine-5-carboxamide]
16 | 10 nM | CC(C)(O)[C@H]1CC[C@H](NC(=O)c2cnc(-n3nc(C(F)(F)F)c4ccccc43)nc2)CC1 [Example 46]
17 | 74 nM | Cc1nn(-c2ccc(C(=O)N[C@H]3CC[C@H](C(C)(C)O)CC3)cn2)c2cccc(F)c12 [Example 50]
18 | 171 nM | Cc1nn(-c2ccc(C(=O)NC3CCCCC3)cc2)c2ccccc12 [Example 11]
19 | 17 nM | Cc1nn(-c2ccc(C(=O)N[C@H]3CC[C@H](OC4CCS(=O)(=O)CC4)CC3)cn2)c2cc(F)ccc12 [Example 80]
20 | 21 nM | Cc1nn(-c2ncc(C(=O)N[C@H]3CC[C@H](CC(C)(C)O)CC3)cn2)c2cnccc12 [Example 3, N-(Trans-4-(2-hydroxy-2-methylpropyl)cyclohexyl)-2-(3-methyl-1H-pyrazolo[3,4-c]pyridin-1-yl)pyrimidine-5-carboxamide]
21 | 225 nM | COc1nn(-c2ncc(C(=O)N[C@H]3CC[C@H](O)CC3)cn2)c2ccccc12 [Example 27]
22 | 41 nM | Cc1nn(-c2ncc(C(=O)N[C@H]3CC[C@H](O)CC3)cc2F)c2ccccc12 [Example 54]
23 | 374 nM | Cc1nn(-c2ccc(C(=O)N[C@H]3CC[C@H](O)CC3)cn2)c2c(F)cccc12 [Example 41]
24 | 7 nM | CC(C)(O)C12CC(NC(=O)c3cnc(-n4nc(C(F)F)c5ccccc54)nc3)(C1)C2 [Example 255]
25 | 45 nM | Cc1nn(-c2ncc(C(=O)N[C@H]3CC[C@H](O)CC3)cn2)c2ccccc12 [Example 18]
26 | 13 nM | CC(C)(O)[C@H]1CC[C@H](NC(=O)c2cnc(-n3nc(C(F)F)c4ccncc43)nc2)CC1 [Example 9, 2-(3-(difluoromethyl)-1H-pyrazolo[3,4-c]pyridin-1-yl)-N-(trans-4-(2-hydroxypropan-2-yl)cyclohexyl)pyrimidine-5-carboxamide]
27 | 3 nM | CS(=O)(=O)CCCO[C@H]1CC[C@H](NC(=O)c2cnc(-n3nc(C(F)F)c4ccccc43)nc2)CC1 [Example 6, 2-(3-(difluoromethyl)-1H-indazol-1-yl)-N-(trans-4-(3-(methylsulfonyl)propoxy)cyclohexyl)pyrimidine-5-carboxamide]

Row | Structure (SMILES) | IC50
28 | Cc1nn(-c2ccc(C(=O)N[C@H]3CC[C@H](C(C)(C)O)CC3)cn2)c2ccccc12 [Example 15] | 12 nM
